# Assay results taken from patent US20020049173A1, “Alteration of cellular behavior by antisense modulation of mRNA processing” (priority 1999, published 2002).
# In the oligonucleotide strings, read from the 5' end, every base follows the letter of its sugar. An asterisk marks phosphorothioate; unmarked linkages are phosphodiester. Other units and linkages are bracketed, terminal groups are in braces. A string of capitals states the bases alone. e = 2'-O-(2-methoxyethyl) (MOE); [5mC] = 5-methylcytosine
# Experiments:
# [1] = tested on: Human IL-5 receptorα; assay: Human IL-5 receptorα protein expression on the cell surface (36 hr), TF-1 cells; assay type: cell-based; parameters: % INHIB, human IL-5 receptorα protein on the cell surface / % of CONTROL, human IL-5 receptorα protein on the cell surface: concentration or dose not given beside the values; details: 36 hr
# Description: (§1) A series of oligonucleotides were designed to target various splice sites or (intron-exon boundaries) in the IL-5 receptor mRNA.
# ISIS 16746, 16748, 16755 and 16758 inhibited human IL-5 receptorα protein by over 50% in this assay and are therefore preferred. ISIS 16758 and 16755 were chosen for further study.
# [2] = tested on: Human IL-5 receptorα membrane form mRNA; assay: Human IL-5 receptorα membrane form mRNA expression (18 hr); assay type: cell-based; parameters: % INHIB'N, human IL-5 receptorα membrane form mRNA / % of CONTROL, human IL-5 receptorα membrane form mRNA: concentration or dose not given beside the values; details: 18 hr
# Description: mRNA transcripts encoding the membrane form of the human IL-5 receptorα contain exons 1-10 and 12-14. Exon 11 is spliced out. It is, therefore, possible to target sequences in exons 1-10 which are common to both soluble and membrane forms of the receptor, or to selectively target sequences only present in the membrane form (exons 12-14). Oligonucleotides were also designed to target various intron/exon boundaries downstream of exon 11, with the intention of preventing successful splicing out of exon 11 and thus redirecting splice products away from the membrane form and in favor of the soluble form of IL-5 receptorα.
# as §1
# [3] = tested on: Human IL-5 receptorα soluble form mRNA; assay: Human IL-5 receptorα soluble form transcript, Northern blot; assay type: cell-based; details: Northern blot analysis
# Description: ISIS 16746, 16748 and 16755 inhibited IL-5 receptor mRNA expression by over 50% and are therefore preferred in this assay. […] Thus it is believed that ISIS 16755 redirects splicing in favor of the membrane form, as is consistent with data obtained with other non-RNAse H (e.g., uniform 2′-methoxyethoxy) oligonucleotides targeted to splice sites.
# [4] = tested on: murine bcl-x mRNA; assay: bcl-xs mRNA induction in mouse cell lines bEND, AML12 and Hepa; assay type: cell-based
# Description: (§2) ISIS 22783 is also fully complementary to the murine bcl-x mRNA which makes it useful for animal studies.
# [5] = tested on: murine bcl-x mRNA; assay: bcl-xs mRNA expression in vivo in mouse liver; details: preliminary experiments
# Description: as §2
# [6] = tested on: A549 cells; assay: Sensitization of A549 cells to cisplatinum-induced cell death, propidium iodide staining; assay type: cell-based, human; details: 100 nM oligo
# Protocol: A549 cells were treated with 100 nM ISIS 22783 or the 5-mismatch ISIS 26080 and cisplatinum at various doses. The percent apoptotic cells was quantitated by propidium iodide staining according to standard methods.
# [7] = tested on: A549 cells; assay: Sensitization of A549 cells to UV-induced cell death, propidium iodide staining; assay type: cell-based, human; details: 100 nM oligo
# Protocol: A549 cells were treated with 100 nM ISIS 22783 or the 5-mismatch ISIS 26080 and exposed to ultraviolet (UV) radiation. The percent apoptotic cells was quantitated by propidium iodide staining according to standard methods.
# [8] = tested on: human bcl-x mRNA; assay: Total bcl-x mRNA and bcl-xs/bcl-xl ratio in A549 cells, RNase protection; assay type: cell-based
# [9] = tested on: bax mRNA; assay: bax mRNA by RNAse protection assay; assay type: cell-based
# Protocol: ISIS 22783 was tested by RNAse protection assay for ability to inhibit bax, another apoptotic gene. It had no effect on bax mRNA levels.
# [10] = tested on: A549 cells; assay: Sensitization of A549 cells to taxol-induced cell death, propidium iodide staining; assay type: cell-based, human; details: 100 nM oligo
# Protocol: A549 cells were treated with 100 nM ISIS 22783 or the 5-mismatch ISIS 26080 and taxol at various doses. The percent apoptotic cells was quantitated by propidium iodide staining according to standard methods.
# [11] = tested on: human bcl-x mRNA; assay: Total bcl-x mRNA and bcl-xs/bcl-xl ratio in A549 cells, RNase protection; assay type: cell-based; remark: listed apart in the source
# Description: In accordance with the present invention, a series of oligonucleotides were designed to target different regions of human bcl-x RNA, using published sequences (Boise, L. H., et al., 1993, Cell 74, 597-608; Genbank Accession No. L20121, locus name “HSBCLXL,” incorporated herein as SEQ ID NO: 39). Antisense oligonucleotides were designed to target areas of exon 1 and exon 2 of human bcl-x, particularly around the exon 1/exon 2 splice site and in sequence regions present in bcl-xl but not in bcl-xs. All backbone linkages are phosphorothioates; All 2′MOE cytosines are 5-methylcytosines.
# Oligonucleotides were evaluated for their respective effects on bcl-xs and bcl-xl3 mRNA levels in A549 cells along with total bcl-x mRNA levels, using the RIBOQUANT™ RNase protection kit (Pharmingen, San Diego Calif.). All assays were performed according to manufacturer's protocols.
# A “walk” was done in this region with 20mer 2′-MOE phosphorothioate oligonucleotides targeted to sequences whose 5′ ends were 24, 26, 29, 31, 33, 37, 39, 41, 43, 44, 45 and 47 bases upstream of the splice site. These oligonucleotides were screened as before at a dose of 200 nM oligonucleotide for effect on short and long bcl-x transcripts.
# [12] = tested on: E-selectin mRNA; assay: Non-quantitative RT-PCR of E-selectin Type I, II and III transcripts in HUVEC; assay type: cell-based, human; details: relative to untreated cells, 200 nM stated for ISIS 106344
# Protocol: (§3) Total RNA was harvested from HUVEC at various times following TNF-α induction using a ToTALLY RNA kit (Ambion) according to the manufacturer's protocol). For Northern blots, RNA was separated on a 1.2% agarose gel containing 1.1% formaldehyde, then transferred to nylon membranes. Blots were hybridized with [^32P]-dCTP random prime labeled cDNA probes specific for E-selectin or […] (G3PDH) for 2 hours in Rapid-hyb solution (Amersham). Blots were washed with 2×SSC containing 0.1% SDS at room temperature, followed by 0.1×SSC containing 0.1% SDS at 60° C. Quantitation of RNA expression was performed using a Molecular Dynamics PhosphorImager. Anchored reverse transcriptase polymerase chain reaction (RT/PCR) was performed essentially as described by Chu et al. (supra.).
# To determine if processing could be controlled more specifically, oligonucleotides were also designed to the upstream polyadenylation signals. Non-quantitative RT-PCR was used to distinguish among the three forms of the message. In the absence of oligonucleotide, all three types of transcript were detected. […] This difference may be due to variation in the efficiency of PCR amplification on the varying length products, with the shorter Type I and II messages being more efficiently amplified than the Type III product. […] To determine if the effects of ISIS 106344 were unique, antisense oligonucleotides were designed to the Type I and Type II polyadenylation sites.
# To evaluate whether treatment with two oligonucleotides would result in the production of a single species of E-selectin message, HUVEC were treated with ISIS 106344, and either ISIS 135568 or ISIS 135570 (150 nM each). […] Cells were also treated with both ISIS 135568 and ISIS 135570.
# [13] = tested on: E-selectin; assay: E-selectin cell surface protein expression by flow cytometry in HUVEC; assay type: cell-based, human
# Protocol: (§4) HUVEC (Clonetics, San Diego, Calif.) were cultivated in endothelial basal media supplemented with 10% fetal bovine serum. Cells were treated with oligonucleotides as described previously (Chiang, 1991, J. Biol. Chem. 27:18162-18171; Vickers, 2000, Nucleic Acids Res. 28:1340-1347). Briefly, cells were incubated with a mixture of Lipofectin (Gibco BRL, Gaithersburg, Md.) and oligonucleotide for 4 hours. Cells were incubated for 2-24 hours, then treated with 5 ng/ml TNF-α for 2-3 hours to induce expression of E-selectin. Cells were then washed extensively with phosphate buffered saline (PBS), fresh complete media was added and cells were incubated at 37° C. until harvested.
# Following oligonucleotide treatment, cells were detached with D-PBS (without calcium and magnesium) supplemented with 4 mM EDTA. Cells were centrifuged at 5,000 rpm for 1 minute and washed in 2% bovine serum albumin (BSA), 0.2% sodium azide in D-PBS at 4° C. E-selectin-phycoerythrin antibody (Ancell) was then added at 1:100 in 0.1 ml of the above buffer, and incubated for 30 min at 4° C. in the dark. Cells were washed again as above and resuspended in 0.3 ml of PBS buffer with 0.5% formaldehyde. Cells were analyzed for E-selectin expression on a FACScan (Becton-Dickinson). Results are expressed as percentage of control expression based upon the mean fluorescence intensity.
# The treated cells were stimulated with TNF-α for 2 hours, then analyzed for E-selectin protein expression by flow cytometry. […] Results at the protein level are not as dramatic as at the RNA level due to the fact that the Type III message remains the predominant RNA species present (FIG. 2). Any change in protein stability resulting from the presence of the type I/II message would likely be partially masked by the more abundant Type III RNA.
# [14] = tested on: E-selectin mRNA (Type III polyadenylation signal and site); assay: E-selectin transcript forms by Northern blot in TNF-α-induced HUVEC; assay type: cell-based, human; details: increasing oligonucleotide dose, TNF-α 2 hours
# Protocol: as §4, §3
# HUVEC were treated with 2′-O-methoxyethyl (MOE)/phosphorothioate antisense oligonucleotides directed to the Type III polyadenylation signal and site (Table 1A) as described above. After about 24 hours, cells were treated with TNF-α to induce E-selectin expression. Cells were harvested after 2 hours and RNA was isolated. E-selectin expression was analyzed by Northern blotting. […] With increasing oligonucleotide dose, the longer Type III message decreased while a shorter message increased (FIG. 2). This shorter message most likely represents a combination of Type I and II messages, because the Type II message is just 158 bases longer than the Type I message, and the difference in sizes cannot be resolved on the gel which was used.
# [15] = tested on: E-selectin mRNA; assay: Stability of E-selectin messages after TNF-α removal (Northern blot, HUVEC); assay type: cell-based, human; details: 200 nM
# Protocol: as §4
# as §3, with “Anchored reverse transcriptase polymerase chain reaction (RT/PCR) was performed essentially as described by Chu et al. (supra.).” left out
substance,measurement,setting,value
"ISIS 16755: GAACACTTACATTTTACAGA, SEQ ID 34; E12/I12; 2′-MOE pattern not visible (antisense eG*eA*eA*e[5mC]*eA*e[5mC]*eT*eT*eA*e[5mC]*eA*eT*eT*eT*eT*eA*e[5mC]*eA*eG*eA)","% INHIB, human IL-5 receptorα protein on the cell surface",[1],over 50%
same,"% INHIB'N, human IL-5 receptorα membrane form mRNA",[2],over 50%
same,inhibition of the soluble form transcript,[3],without significantly inhibiting the soluble form
"ISIS 22783: CTGGATCCAAGGCTCTAGGT, SEQ ID 44; fully 2′-MOE, full-phosphorothioate; bcl-xl Exon 1L 664-683 (e[5mC]*eT*eG*eG*eA*eT*e[5mC]*e[5mC]*eA*eA*eG*eG*e[5mC]*eT*e[5mC]*eT*eA*eG*eG*eT)",induction of bcl-xs mRNA,[4],induction of bcl-xs mRNA
same,bcl-xs mRNA expression in mouse liver,[5],slight induction of bcl-xs mRNA expression
same,% Apoptotic cells (approx),[6]; cisplatinum 0 μg/ml,~3%
same,% Apoptotic cells (approx),[6]; cisplatinum 1 μg/ml,~6%
same,% Apoptotic cells (approx),[6]; cisplatinum 10 μg/ml,~13%
same,% Apoptotic cells (approx),[6]; cisplatinum 50 μg/ml,~27%
same,% Apoptotic cells (approx),[7]; UV 0 mJ/M^2,~2%
same,% Apoptotic cells (approx),[7]; UV 50 mJ/M^2,~4%
same,% Apoptotic cells (approx),[7]; UV 100 mJ/M^2,~33%
same,% Apoptotic cells (approx),[7]; UV 200 mJ/M^2,~27%
same,approx. ratio of bcl-xs/bcl-xl,[8]; Oligo Concentration 100 (unit not given),~4.5
same,approx. ratio of bcl-xs/bcl-xl,[8]; Oligo Concentration 400 (unit not given),~18
same,effect on bax mRNA levels,[9],no effect
same,% Apoptotic cells (approx),[10]; taxol 0 μg/ml,~8%
same,% Apoptotic cells (approx),[10]; taxol 5 μg/ml,~8%
same,% Apoptotic cells (approx),[10]; taxol 10 μg/ml,~15%
same,% Apoptotic cells (approx),[10]; taxol 30 μg/ml,~26%
same,time after treatment at which bcl-xs induction with concurrent bcl-xL reduction begins,[11]; A549 cells,2 to 4 h
same,% CRTL total bcl-x,[11]; A549 cells (Table 13),without reducing the total bcl-x mRNA level
same,bcl-xs/bcl-xl (%),"[11]; A549 cells, no oligo 17.56",293%
same,approx. ratio of bcl-xs/bcl-xl,[11]; Oligo Concentration 200 (unit not given),~8.5
"ISIS 106344: CATAAGCACATTTATTGTCA, SEQ ID 66; uniformly 2′-MOE phosphorothioate; E-selectin Type III poly(A) signal (all 2'-MOE, all phosphorothioate, methylation of C not given here)",Type I E-selectin message (RT-PCR),[12],increased
same,Type II E-selectin message (RT-PCR),[12],increased
same,Type III E-selectin message (RT-PCR),[12],decrease
same,duration of E-selectin protein expression,"[13]; TNF-α 2 hours, versus control oligonucleotide",sustained expression of E-selectin protein
same,time of maximal E-selectin protein expression,[13]; after addition of TNF-α,four hours after addition of TNF-α
same,longer Type III E-selectin message (Northern blot),[14],decreased
same,shorter E-selectin message (Type I and II) (Northern blot),[14],increased
same,stability of the shorter (type I/II) messages following TNF-α removal,[15],More than half of the shorter messages remained five hours
same,time following TNF-α removal at which about one half of the type II message remained,[15]; message printed as type II,~2.5 h
